Assay results reported in patent US8993616B2, “(aza)indole derivative and use thereof for medical purposes” (Kissei Pharmaceutical Co., Ltd., priority 2007, dated 2015).

molecular target: Xanthine oxidase (from bovine milk, Sigma) (Bos taurus (Bovine), UniProt P80457); assay: Xanthine oxidase inhibitory activity; type: biochemical; details: xanthine substrate, 10 minutes at room temperature, absorbance at 290 nm
Procedure: (1) Preparation of Test Compounds
Test compounds were dissolved in DMSO (Wako) at 40 mM concentration and then diluted to intended concentrations with phosphate-buffered saline (PBS).
(2) Method for Measurement
Xanthine oxidase (from bovine milk, Sigma) was prepared with phosphate-buffered saline (PBS) at 0.02 units/mL, and then the solution was added to 96 well plates at 50 μL/well. In addition, test compounds diluted with PBS were added at 50 μL/well. Xanthine (Wako) at 200 μM prepared with PBS was added at 100 μL/well, and the reaction was conducted for 10 minutes at room temperature. Absorbance at 290 nm was measured using a microplate reader SpectraMax Plus 384 (Molecular device). The absorbance under a condition without xanthine is 0%, and control without test compounds is 100%. Fifty % inhibitory concentration of a test compound (IC50) was calculated (Table 60). Ex. No in the table indicates Example number.

Sequence of Xanthine oxidase (from bovine milk, Sigma) (P80457 whole entry): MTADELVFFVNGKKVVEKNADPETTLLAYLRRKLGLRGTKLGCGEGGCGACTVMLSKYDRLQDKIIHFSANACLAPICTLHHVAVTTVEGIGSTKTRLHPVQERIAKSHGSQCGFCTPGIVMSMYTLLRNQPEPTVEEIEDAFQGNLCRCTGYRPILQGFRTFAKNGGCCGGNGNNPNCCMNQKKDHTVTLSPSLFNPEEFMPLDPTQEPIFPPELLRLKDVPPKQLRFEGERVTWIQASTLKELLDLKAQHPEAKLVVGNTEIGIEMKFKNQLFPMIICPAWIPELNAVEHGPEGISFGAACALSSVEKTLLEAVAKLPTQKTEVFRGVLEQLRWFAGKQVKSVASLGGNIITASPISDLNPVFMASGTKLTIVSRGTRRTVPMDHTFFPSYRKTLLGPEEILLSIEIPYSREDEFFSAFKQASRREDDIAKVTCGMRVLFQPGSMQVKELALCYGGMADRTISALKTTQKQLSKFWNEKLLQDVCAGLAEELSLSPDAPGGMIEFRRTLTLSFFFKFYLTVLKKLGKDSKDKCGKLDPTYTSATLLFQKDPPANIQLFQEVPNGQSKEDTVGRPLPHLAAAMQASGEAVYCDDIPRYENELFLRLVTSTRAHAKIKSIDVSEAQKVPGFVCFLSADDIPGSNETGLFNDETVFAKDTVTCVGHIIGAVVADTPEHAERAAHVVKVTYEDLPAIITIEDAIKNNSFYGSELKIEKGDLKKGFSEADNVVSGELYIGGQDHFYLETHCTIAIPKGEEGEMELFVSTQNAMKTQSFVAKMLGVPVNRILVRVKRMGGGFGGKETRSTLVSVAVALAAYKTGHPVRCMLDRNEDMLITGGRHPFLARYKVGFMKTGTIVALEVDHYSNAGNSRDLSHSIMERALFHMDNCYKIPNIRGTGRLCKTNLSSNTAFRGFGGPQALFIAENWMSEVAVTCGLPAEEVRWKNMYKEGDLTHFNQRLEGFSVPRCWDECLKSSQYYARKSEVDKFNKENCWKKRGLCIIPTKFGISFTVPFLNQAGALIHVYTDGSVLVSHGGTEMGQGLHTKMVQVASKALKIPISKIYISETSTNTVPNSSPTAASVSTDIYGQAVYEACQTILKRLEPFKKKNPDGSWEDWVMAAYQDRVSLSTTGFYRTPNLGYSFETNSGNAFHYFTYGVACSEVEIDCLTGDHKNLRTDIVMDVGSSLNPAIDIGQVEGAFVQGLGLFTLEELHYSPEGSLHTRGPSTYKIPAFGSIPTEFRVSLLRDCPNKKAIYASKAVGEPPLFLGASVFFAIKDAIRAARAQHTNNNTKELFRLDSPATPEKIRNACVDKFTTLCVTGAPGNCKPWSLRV

IC50 | Compound
33.6 nM | N#Cc1cn(-c2ccc(C(=O)O)c(O)c2)c2cc(OCc3ccccc3)ccc12 [Example 5, 4-(6-Benzyloxy-3-cyanoindol-1-yl)-2-hydroxybenzoic acid]
41.5 nM | N#Cc1cn(-c2ccc(C(=O)O)c(O)c2)c2cc(OCCNC(=O)OCc3ccccc3)ccc12 [Example 8, 4-[6-(2-Benzyloxycarbonylaminoethyloxy)-3-cyanoindol-1-yl]-2-hydroxybenzoic acid]
12.5 nM | N#Cc1cn(-c2ccc(C(=O)O)c(O)c2)c2cc(OCCN)ccc12 [Example 9, 4-[6-(2-Aminoethyloxy)-3-cyanoindol-1-yl]-2-hydroxybenzoic acid]
7 nM | CC(=O)NCCOc1ccc2c(C#N)cn(-c3ccc(C(=O)O)c(O)c3)c2c1 [Example 12, 4-[6-(2-Acetylaminoethyloxy)-3-cyanoindol-1-yl]-2-hydroxybenzoic acid]
15.5 nM | COc1ccc(-c2ccc3c(c2)c(C#N)cn3-c2ccc(C(=O)O)cc2)cc1 [Example 15, 4-[3-Cyano-5-(4-methoxyphenyl)indol-1-yl]benzoic acid]
12.1 nM | N#Cc1cn(-c2ccc(C(=O)O)cc2)c2ccc(/C=C/C(=O)O)cc12 [Example 17, 4-[5-((E)-2-Carboxyvinyl)-3-cyanoindol-1-yl]benzoic acid]
96 nM | N#Cc1cn(-c2ccc(C(=O)O)cc2)c2cccc(OCc3ccccc3)c12 [Example 19, 4-(4-Benzyloxy-3-cyanoindol-1-yl)benzoic acid]
14.6 nM | N#Cc1cn(-c2ccc(C(=O)O)cc2)c2ccc(OCc3cccs3)cc12 [Example 27, 4-[3-Cyano-5-(thiophen-2-ylmethyloxy)indol-1-yl]benzoic acid]
43.3 nM | N#Cc1cn(-c2ccc(C(=O)O)cc2)c2ccc(C(=O)O)cc12 [Example 29, 4-(5-Carboxy-3-cyanoindol-1-yl)benzoic acid]
91.1 nM | N#Cc1cn(-c2ccc(C(=O)O)cc2)c2ccc(CO)cc12 [Example 32, 4-(3-Cyano-5-hydroxymethylindol-1-yl)benzoic acid]
48.3 nM | CN(C)C(=O)c1ccc2c(c1)c(C#N)cn2-c1ccc(C(=O)O)cc1 [Example 34, 4-(3-Cyano-5-dimethylaminocarbonylindol-1-yl)benzoic acid]
175 nM | N#Cc1cn(-c2ccc(C(=O)O)c(N)c2)c2ccccc12 [Example 42, 2-Amino-4-(3-cyanoindol-1-yl)benzoic acid]
58.6 nM | Cc1nc(-n2cc(C#N)c3ccccc32)sc1C(=O)O [Example 47, 2-(3-Cyanoindol-1-yl)-4-methylthiazole-5-carboxylic acid]
24.4 nM | Cc1ccc2c(c1)c(C#N)cn2-c1ccc(C(=O)O)cn1 [Example 143]
38 nM | Cc1cc2c(cc1OCc1ccccc1)c(C#N)cn2-c1ccc(C(=O)O)cc1 [Example 149]
20.6 nM | N#Cc1cn(-c2ccc(C(=O)O)cc2)c2ccc(-c3ccccc3)cc12 [Example 150]
22.4 nM | N#Cc1cn(-c2ccc(C(=O)O)cc2)c2ccc(OCc3ccccc3)cc12 [Example 151]
15.8 nM | N#Cc1cn(-c2ccc(C(=O)O)cc2)c2ccc(O)cc12 [Example 152]
12.2 nM | COCCOc1ccc2c(c1)c(C#N)cn2-c1ccc(C(=O)O)cc1 [Example 153]
19 nM | N#Cc1cn(-c2ccc(C(=O)O)cc2)c2ccc(OCCOc3ccccc3)cc12 [Example 154]
112 nM | N#Cc1cn(-c2ccc(C(=O)O)cc2)c2cc(-c3ccccc3)ccc12 [Example 155]
11.9 nM | COc1cccc(-c2ccc3c(c2)c(C#N)cn3-c2ccc(C(=O)O)cc2)c1 [Example 156]
14.1 nM | COc1ccccc1-c1ccc2c(c1)c(C#N)cn2-c1ccc(C(=O)O)cc1 [Example 157]
9.5 nM | N#Cc1cn(-c2ccc(C(=O)O)cc2)c2ccc(-c3cccs3)cc12 [Example 158]
14.4 nM | N#Cc1cn(-c2ccc(C(=O)O)cc2)c2ccc(-c3ccncc3)cc12 [Example 159]

IC50 | Compound
11.3 nM | N#Cc1cn(-c2ccc(C(=O)O)cc2)c2ccc(C(=O)NCc3ccccc3)cc12 [Example 160]
49.8 nM | CN(Cc1ccccc1)C(=O)c1ccc2c(c1)c(C#N)cn2-c1ccc(C(=O)O)cc1 [Example 161]
16.5 nM | COCCNC(=O)c1ccc2c(c1)c(C#N)cn2-c1ccc(C(=O)O)cc1 [Example 162]
111 nM | CN(C)c1ccc(-c2ccc3c(c2)c(C#N)cn3-c2ccc(C(=O)O)cc2)cc1 [Example 165]
7.2 nM | CC(=O)c1ccc(-c2ccc3c(c2)c(C#N)cn3-c2ccc(C(=O)O)cc2)cc1 [Example 166]
10.9 nM | CS(=O)(=O)c1ccc(-c2ccc3c(c2)c(C#N)cn3-c2ccc(C(=O)O)cc2)cc1 [Example 167]
20 nM | N#Cc1cn(-c2ccc(C(=O)O)cc2)c2ccc(OCC(=O)O)cc12 [Example 170]
10.9 nM | N#Cc1cn(-c2ccc(C(=O)O)cc2)c2ccc(OCCO)cc12 [Example 171]
8 nM | N#Cc1cn(-c2ccc(C(=O)O)cc2)c2ccc(OCCCO)cc12 [Example 172]
24.4 nM | CCOCCOc1ccc2c(c1)c(C#N)cn2-c1ccc(C(=O)O)cc1 [Example 174]
22.2 nM | N#Cc1cn(-c2ccc(C(=O)O)cc2)c2ccc(OCCOCc3ccccc3)cc12 [Example 175]
18.3 nM | N#Cc1cn(-c2ccc(C(=O)O)cc2)c2ccc(OCc3ccsc3)cc12 [Example 176]
16.4 nM | CN(C)CCCOc1ccc2c(c1)c(C#N)cn2-c1ccc(C(=O)O)cc1 [Example 177]
12.9 nM | CS(=O)(=O)c1ccc(COc2ccc3c(c2)c(C#N)cn3-c2ccc(C(=O)O)cc2)cc1 [Example 178]
8 nM | N#Cc1cn(-c2ccc(C(=O)O)cc2)c2ccc(-c3ccc(O)c(Cl)c3)cc12 [Example 179]
29 nM | CC(C)(C)OC(=O)NCCCOc1ccc2c(c1)c(C#N)cn2-c1ccc(C(=O)O)cc1 [Example 180]
17.2 nM | N#Cc1cn(-c2ccc(C(=O)O)cc2)c2ccc(OCCCN)cc12 [Example 181]
16.3 nM | CS(=O)(=O)Nc1ccc2c(c1)c(C#N)cn2-c1ccc(C(=O)O)cc1 [Example 182]
7.5 nM | CS(=O)(=O)Nc1ccc(-c2ccc3c(c2)c(C#N)cn3-c2ccc(C(=O)O)cc2)cc1 [Example 183]
138 nM | N#Cc1cn(-c2ccc(C(=O)O)cc2)c2cc(CO)ccc12 [Example 184]
40.2 nM | COCCOc1ccc2c(C#N)cn(-c3ccc(C(=O)O)cc3)c2c1 [Example 185]
49.7 nM | N#Cc1cn(-c2ccc(C(=O)O)cc2)c2cc(OCCO)ccc12 [Example 186]
16.4 nM | Cc1ccc2c(c1)c(C#N)cn2-c1nc(C)c(C(=O)O)s1 [Example 187]
13.9 nM | Cc1ccc2c(c1)c(C#N)cn2-c1ccc(C(=O)O)c(O)c1 [Example 189]
5.4 nM | N#Cc1cn(-c2ccc(C(=O)O)c(O)c2)c2cc(Cl)ccc12 [Example 190]

IC50 | Compound
14.5 nM | N#Cc1cn(-c2ccc(C(=O)O)c(O)c2)c2cc(C(F)(F)F)ccc12 [Example 195]
6.7 nM | COc1ccc2c(c1)c(C#N)cn2-c1ccc(C(=O)O)c(O)c1 [Example 196]
9 nM | N#Cc1cn(-c2ccc(C(=O)O)c(O)c2)c2ccc(Cl)cc12 [Example 197]
54.6 nM | N#Cc1cn(-c2ccc(C(=O)O)c(O)c2)c2ccc(-c3ccccc3)cc12 [Example 198]
49.2 nM | N#Cc1cn(-c2ccc(C(=O)O)c(O)c2)c2cc(-c3ccccc3)ccc12 [Example 199]
39.4 nM | N#Cc1cn(-c2ccc(C(=O)O)c(O)c2)c2ccc(OCc3ccccc3)cc12 [Example 200]
5.5 nM | N#Cc1cn(-c2ccc(C(=O)O)c(O)c2)c2ccc(O)cc12 [Example 201]
61.8 nM | N#Cc1cn(-c2ccc(C(=O)O)c(O)c2)c2cccc(OCc3ccccc3)c12 [Example 202]
7.1 nM | N#Cc1cn(-c2ccc(C(=O)O)c(O)c2)c2cccc(O)c12 [Example 203]
27.6 nM | CC(C)COc1ccc2c(c1)c(C#N)cn2-c1ccc(C(=O)O)c(O)c1 [Example 205]
7.2 nM | N#Cc1ccc2c(c1)c(C#N)cn2-c1ccc(C(=O)O)c(O)c1 [Example 206]
7.3 nM | N#Cc1ccc2c(C#N)cn(-c3ccc(C(=O)O)c(O)c3)c2c1 [Example 207]
6 nM | N#Cc1cccc2c1c(C#N)cn2-c1ccc(C(=O)O)c(O)c1 [Example 208]
11 nM | CC(C)Oc1ccc2c(c1)c(C#N)cn2-c1ccc(C(=O)O)c(O)c1 [Example 209]
7 nM | N#Cc1cn(-c2ccc(C(=O)O)c(O)c2)c2ccc(OCCO)cc12 [Example 210]
6.2 nM | COCCOc1ccc2c(c1)c(C#N)cn2-c1ccc(C(=O)O)c(O)c1 [Example 211]
5.1 nM | N#Cc1cn(-c2ccc(C(=O)O)c(O)c2)c2cc(O)ccc12 [Example 212]
7.2 nM | N#Cc1cn(-c2ccc(C(=O)O)c(O)c2)c2ccc(OCC(=O)O)cc12 [Example 213]
11 nM | CCOc1ccc2c(c1)c(C#N)cn2-c1ccc(C(=O)O)c(O)c1 [Example 214]
10.5 nM | COCCOc1ccc2c(C#N)cn(-c3ccc(C(=O)O)c(O)c3)c2c1 [Example 215]
7.4 nM | N#Cc1cn(-c2ccc(C(=O)O)c(O)c2)c2cc(OCC(=O)O)ccc12 [Example 216]
6 nM | COc1ccc2c(C#N)cn(-c3ccc(C(=O)O)c(O)c3)c2c1 [Example 217]
6 nM | N#Cc1cn(-c2ccc(C(=O)O)c(O)c2)c2cc(OCCO)ccc12 [Example 218]
8.3 nM | CCOCCOc1ccc2c(C#N)cn(-c3ccc(C(=O)O)c(O)c3)c2c1 [Example 219]
